{"source": "patent US20040171543A1", "about": "“Matrix metalloproteinase inhibitors and methods for identification of lead compounds” (priority 2002, published 2004)", "key": {"MMP-12 [1]": {"target": "T1, MMP-12 (Homo sapiens, UniProt P39900)", "T1 sequence (P39900 106-470)": "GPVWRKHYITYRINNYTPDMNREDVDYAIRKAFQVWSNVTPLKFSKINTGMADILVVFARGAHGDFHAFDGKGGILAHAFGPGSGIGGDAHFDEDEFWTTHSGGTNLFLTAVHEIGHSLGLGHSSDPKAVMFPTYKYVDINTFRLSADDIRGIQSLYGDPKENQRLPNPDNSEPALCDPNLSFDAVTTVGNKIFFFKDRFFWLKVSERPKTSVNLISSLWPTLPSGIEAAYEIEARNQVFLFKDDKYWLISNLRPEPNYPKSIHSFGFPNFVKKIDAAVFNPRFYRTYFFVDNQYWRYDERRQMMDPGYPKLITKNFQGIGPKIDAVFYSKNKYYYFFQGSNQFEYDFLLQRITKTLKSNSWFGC", "details": "literature; cited from earlier work"}, "MMP-2 and MMP-9": {"tested_on": "MMP-2 and MMP-9", "details": "Wada et al.; cited from earlier work"}, "tumor growth": {"tested_on": "tumor growth", "details": "murine syngenetic tumor growth model; cited from earlier work"}, "MMP-9": {"target": "MMP-9 (Homo sapiens, UniProt P14780)", "sequence (P14780 94-707)": "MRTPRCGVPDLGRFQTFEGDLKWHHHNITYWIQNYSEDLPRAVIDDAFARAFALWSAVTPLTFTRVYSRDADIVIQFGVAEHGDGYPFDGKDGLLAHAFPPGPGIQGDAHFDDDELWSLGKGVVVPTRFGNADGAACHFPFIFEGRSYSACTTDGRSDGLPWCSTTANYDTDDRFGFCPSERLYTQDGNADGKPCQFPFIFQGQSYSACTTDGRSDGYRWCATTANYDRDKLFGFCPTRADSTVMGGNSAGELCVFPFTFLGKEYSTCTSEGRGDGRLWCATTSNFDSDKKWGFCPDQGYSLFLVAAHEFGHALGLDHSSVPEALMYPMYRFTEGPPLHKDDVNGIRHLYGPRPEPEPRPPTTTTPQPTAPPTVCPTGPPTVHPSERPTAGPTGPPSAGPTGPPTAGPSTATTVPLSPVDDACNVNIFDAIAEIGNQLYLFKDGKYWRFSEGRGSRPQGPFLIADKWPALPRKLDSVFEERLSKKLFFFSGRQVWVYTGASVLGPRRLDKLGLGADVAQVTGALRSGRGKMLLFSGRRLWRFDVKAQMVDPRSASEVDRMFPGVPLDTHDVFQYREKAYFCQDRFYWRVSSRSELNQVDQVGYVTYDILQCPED", "assay": "TPL (thiopeptolide) assay, MMP-9", "type": "biochemical", "description": "(§1) The assays that can be used to evaluate the biological activity of various compounds for inhibiting MMPs are well-known and routinely used by those skilled in the art. They measure the amount by which a test compound reduces the hydrolysis of a thiopeptolide substrate caused by a matrix metalloproteinase enzyme. Such assays are described in detail by Ye et al., in Biochemistry, 1992;31(45): 11231-11235, which is incorporated herein by reference.\n(§2) Thiopeptolide substrates show virtually no decomposition or hydrolysis in the absence of a matrix metalloproteinase enzyme. A typical thiopeptolide substrate commonly utilized for assays is Ac-Pro-Leu-Gly-thioester-Leu-Leu-Gly-OEt. A 100 μL assay mixture will contain 50 mM of 2-morpholinoethane sulfonic acid monohydrate (MES, pH 6.0) 10 mM CaCl2, 100 μM thiopeptolide substrate, and 1 mM 5,5′-dithio-bis-(2-nitro-benzoic acid) (DTNB). The thiopeptolide substrate concentration is varied from 10 to 800 μM to obtain Km and Kcat values. The change in absorbance at […] is monitored on a Thermo Max microplate reader (Molecular Devices, Menlo Park, Calif.) at room temperature (22° C.). The calculation of the amount of hydrolysis of the thiopeptolide substrate is based on E412=13600 m^−1 cm^−1 for the DTNB-derived product 3-carboxy-4-nitrothiophenoxide. Assays are carried out with and without matrix metalloproteinase inhibitor compounds, and the amount of hydrolysis is compared for a determination of inhibitory activity of the test compounds."}, "MMP-1": {"target": "T2, MMP-1 (Homo sapiens, UniProt P03956)", "T2 sequence (P03956 100-469)": "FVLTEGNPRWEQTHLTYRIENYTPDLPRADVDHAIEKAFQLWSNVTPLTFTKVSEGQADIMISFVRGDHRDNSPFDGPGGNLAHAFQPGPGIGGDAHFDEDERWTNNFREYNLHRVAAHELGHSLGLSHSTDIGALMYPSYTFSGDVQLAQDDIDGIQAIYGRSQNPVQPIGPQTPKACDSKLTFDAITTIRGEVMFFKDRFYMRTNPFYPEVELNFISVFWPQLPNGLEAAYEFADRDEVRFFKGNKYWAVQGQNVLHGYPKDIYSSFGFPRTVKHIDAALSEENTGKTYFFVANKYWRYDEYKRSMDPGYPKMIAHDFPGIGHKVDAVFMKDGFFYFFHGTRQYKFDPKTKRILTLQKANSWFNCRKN", "assay": "TPL (thiopeptolide) assay, MMP-1", "type": "biochemical", "description": "as §1, §2"}, "MMP-14": {"target": "MMP-14 (Homo sapiens, UniProt P50281)", "assay": "TPL (thiopeptolide) assay, MMP-14", "type": "biochemical", "description": "as §1, §2"}, "MMP-2": {"target": "T3, MMP-2 (Homo sapiens, UniProt P08253)", "T3 sequence (P08253 110-660)": "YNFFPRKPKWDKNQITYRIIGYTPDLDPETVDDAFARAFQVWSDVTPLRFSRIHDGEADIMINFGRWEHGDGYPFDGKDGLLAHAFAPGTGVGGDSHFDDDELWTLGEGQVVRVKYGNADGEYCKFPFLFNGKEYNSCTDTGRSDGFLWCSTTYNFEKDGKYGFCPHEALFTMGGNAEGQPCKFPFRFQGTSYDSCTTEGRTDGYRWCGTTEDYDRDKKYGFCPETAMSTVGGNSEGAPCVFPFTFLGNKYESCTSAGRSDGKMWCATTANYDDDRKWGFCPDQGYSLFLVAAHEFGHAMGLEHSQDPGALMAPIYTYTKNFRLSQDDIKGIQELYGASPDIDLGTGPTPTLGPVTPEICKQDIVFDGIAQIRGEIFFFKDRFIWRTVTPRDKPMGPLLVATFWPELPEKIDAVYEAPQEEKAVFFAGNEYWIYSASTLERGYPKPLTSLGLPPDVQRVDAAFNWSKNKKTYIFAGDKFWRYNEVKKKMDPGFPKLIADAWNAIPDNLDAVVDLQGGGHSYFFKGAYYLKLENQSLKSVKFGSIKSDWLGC", "assay": "TPL (thiopeptolide) assay, MMP-2", "type": "biochemical", "description": "as §1, §2"}, "MMP-13": {"target": "MMP-13 (Homo sapiens, UniProt P45452)", "assay": "TPL (thiopeptolide) assay, MMP-13 (without and with AH)", "type": "biochemical", "protocol": "Thiopeptolide substrates show virtually no decomposition or hydrolysis in the absence of a matrix metalloproteinase enzyme. A typical thiopeptolide substrate commonly utilized for assays is Ac-Pro-Leu-Gly-thioester-Leu-Leu-Gly-OEt. A 100 μL assay mixture will contain 50 mM of 2-morpholinoethane sulfonic acid monohydrate (MES, pH 6.0) 10 mM CaCl2, 100 μM thiopeptolide substrate, and 1 mM 5,5′-dithio-bis-(2-nitro-benzoic acid) (DTNB). […] The change in absorbance at 405 mm is monitored on a Thermo Max microplate reader (Molecular Devices, Menlo Park, Calif.) at room temperature (22° C.). […] Assays are carried out with and without matrix metalloproteinase inhibitor compounds, and the amount of hydrolysis is compared for a determination of inhibitory activity of the test compounds."}, "MMP-3": {"target": "MMP-3 (Homo sapiens, UniProt P08254)", "sequence (P08254 100-477)": "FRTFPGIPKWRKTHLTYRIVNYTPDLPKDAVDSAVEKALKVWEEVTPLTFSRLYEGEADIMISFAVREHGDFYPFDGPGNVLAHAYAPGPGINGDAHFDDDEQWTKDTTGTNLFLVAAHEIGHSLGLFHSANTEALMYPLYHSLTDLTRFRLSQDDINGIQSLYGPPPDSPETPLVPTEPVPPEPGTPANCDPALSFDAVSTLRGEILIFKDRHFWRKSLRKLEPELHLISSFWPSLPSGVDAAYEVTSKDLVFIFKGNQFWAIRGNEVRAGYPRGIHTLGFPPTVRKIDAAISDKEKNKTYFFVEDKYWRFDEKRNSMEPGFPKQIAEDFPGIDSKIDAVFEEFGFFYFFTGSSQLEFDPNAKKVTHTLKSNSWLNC", "assay": "TPL (thiopeptolide) assay, MMP-3", "type": "biochemical", "description": "as §1, §2"}, "MMP-12 [2]": {"target": "T1, MMP-12", "assay": "TPL (thiopeptolide) assay, MMP-12 (without and with AH)", "type": "biochemical", "description": "as §1, §2\nAlthough ligand size is not critical, a bulky ligand will block more binding sites of the MMP than a smaller ligand, and may thus prevent potential inhibitors that bind close to, but not at, the functional metal cation from being identified. Suitable ligands are therefore low molecular weight molecules, e.g. acetohydroxamic acid (CH3CONHOH) whose use is preferred."}, "[3]": {"target": "T4, MMP-13 catalytic domain (MMP-13CD) (Homo sapiens, UniProt P45452)", "T4 construct": "The catalytic domain of the MMP-13 enzyme, namely matrix metalloproteinase-13 catalytic domain (“MMP-13CD”)", "assay": "Fluorigenic peptide-1 substrate based assay, MMP-13CD, with/without AcNHOH", "type": "biochemical", "details": "IC50 with AcNHOH divided by IC50 without", "protocol": "The catalytic domain of the MMP-13 enzyme, namely matrix metalloproteinase-13 catalytic domain (“MMP-13CD”), rather than the corresponding full-length enzyme, MMP-13 was used in such assay.\n50 mM HEPES buffer (pH 7.0)\n2% DMSO (with or without inhibitor test compound)\n1. Dispensed 2 μL inhibitor test sample (in 100% DMSO) into well.\n2. Added 88 μL assay mixture and mixed well, avoiding bubbles.\n3. Initiated reactions with 10 μL of 5 nM MMP-13CD; mixed well, avoiding bubbles.\n4. Immediately measured the kinetics of the reactions at room temperature.\nAlternatively, an endpoint read can also be used to determine reaction velocity provided the initial fluorescence of the solution, as recorded before addition of enzyme, is subtracted from the final fluorescence of the reaction mixture."}, "MMP-8": {"target": "MMP-8 (Homo sapiens, UniProt P22894)", "sequence (P22894 101-467)": "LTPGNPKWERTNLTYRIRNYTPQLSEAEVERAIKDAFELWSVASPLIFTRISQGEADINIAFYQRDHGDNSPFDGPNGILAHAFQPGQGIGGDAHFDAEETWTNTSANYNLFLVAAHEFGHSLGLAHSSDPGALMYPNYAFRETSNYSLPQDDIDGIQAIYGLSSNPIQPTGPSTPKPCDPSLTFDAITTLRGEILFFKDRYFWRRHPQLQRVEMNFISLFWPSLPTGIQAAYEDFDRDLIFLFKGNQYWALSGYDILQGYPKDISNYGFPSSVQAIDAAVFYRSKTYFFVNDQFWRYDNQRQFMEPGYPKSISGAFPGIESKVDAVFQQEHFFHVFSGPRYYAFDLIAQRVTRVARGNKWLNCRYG", "assay": "TPL (thiopeptolide) assay, MMP-8", "type": "biochemical", "description": "as §1\nas §2, with “Assays are carried out with and without matrix metalloproteinase inhibitor compounds, and the amount of hydrolysis is compared for a determination of inhibitory activity of the test compounds.” left out"}, "MMP-7": {"target": "T5, MMP-7 (Homo sapiens, UniProt P09237)", "T5 sequence (P09237 95-267)": "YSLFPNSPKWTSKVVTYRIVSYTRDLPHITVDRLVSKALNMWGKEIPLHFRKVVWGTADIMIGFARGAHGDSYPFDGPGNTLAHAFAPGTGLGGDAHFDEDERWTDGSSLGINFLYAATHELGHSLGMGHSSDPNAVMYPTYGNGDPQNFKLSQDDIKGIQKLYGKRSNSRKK", "assay": "TPL (thiopeptolide) assay, MMP-7", "type": "biochemical", "description": "as §1\nas §2, with “Assays are carried out with and without matrix metalloproteinase inhibitor compounds, and the amount of hydrolysis is compared for a determination of inhibitory activity of the test compounds.” left out"}, "[4]": {"details": "TPL assay, without AH, read-out: IC50 MMP-13"}, "[5]": {"details": "TPL assay, without AH, read-out: IC50 MMP-12"}}, "note": "pIC50: −log10 of the molar value. Like-named read-outs stand apart in the source and are kept apart here. Marks after values point to notes of the source that are not given here."}
{"smiles": "COc1ccc(S(=O)(=O)N(Cc2cccnc2)[C@@H](C(=O)NO)C(C)C)cc1", "note": "[CGS27023A]", "values": [{"measurement": "pIC50", "setting": "MMP-12 [1]", "result": 8.70}]}
{"smiles": "CC1(C)OCC([C@@H](CS(=O)(=O)c2ccc(Oc3ccc(OC(F)(F)F)cc3)cc2)N(O)C=O)O1", "note": "(stereo partly drawn)", "values": [{"measurement": "Selectivity for inhibition of MMP-2 and MMP-9 over MMP-1", "setting": "MMP-2 and MMP-9", "result": "selective"}, {"measurement": "Antitumor activity", "setting": "tumor growth", "result": "demonstrated antitumor activity"}]}
{"smiles": "COc1cccc(COC(=O)c2cc3c(=O)n(Cc4ccc(-c5nn[nH]n5)cc4)c(=O)[nH]c3s2)c1", "note": "[Example 3, 2,4-Dioxo-3-[4-(2H-tetrazol-5-yl)-benzyl]-1,2,3,4-tetrahydro-thieno[2,3-d]pyrimidine-6-carboxylic acid 3-methoxy-benzyl ester]", "values": [{"measurement": "pIC50", "setting": "MMP-9; read-out: IC50 MMP-9", "result": "< 4.00"}, {"measurement": "pIC50", "setting": "MMP-1; read-out: IC50 MMP-1", "result": "< 4.00"}, {"measurement": "pIC50", "setting": "MMP-14; read-out: IC50 MMP-14", "result": "< 4.00"}, {"measurement": "pIC50", "setting": "MMP-2; read-out: IC50 MMP-2", "result": "< 4.00"}, {"measurement": "pIC50", "setting": "MMP-13; [4]", "result": 8.92}, {"measurement": "pIC50", "setting": "MMP-3; read-out: IC50 MMP-3", "result": 6.80}, {"measurement": "pIC50", "setting": "MMP-12 [2]; [5]", "result": 5.47}]}
{"smiles": "Cc1c(-c2ccc(-n3ccnc3)cc2)[nH][nH]c1=O", "note": "[Entry 5]", "values": [{"measurement": "IC50 Ratio (±)", "setting": "[3]", "result": 1.16}]}
{"smiles": "O=C(O)c1ccc(CNC(=O)c2cc(-c3ccc(OC(F)(F)F)cc3)cs2)cc1", "note": "[Example 5, 4-({[4-(4-Trifluoromethoxyphenyl)thien-2-yl]carboxamido}methyl) benzoic acid]", "values": [{"measurement": "pIC50", "setting": "MMP-9; read-out: IC50 MMP-9", "result": "< 4.52"}, {"measurement": "pIC50", "setting": "MMP-8", "result": "< 4.52"}, {"measurement": "pIC50", "setting": "MMP-1; read-out: IC50 MMP-1", "result": "< 4.52"}, {"measurement": "pIC50", "setting": "MMP-7; read-out: IC50 MMP-7", "result": "< 4.52"}, {"measurement": "pIC50", "setting": "MMP-14; read-out: IC50 MMP-14", "result": "< 4.52"}, {"measurement": "pIC50", "setting": "MMP-2; read-out: IC50 MMP-2", "result": "< 4.52"}, {"measurement": "pIC50", "setting": "MMP-13; [4]", "result": 9.85}, {"measurement": "pIC50", "setting": "MMP-13; in presence of acetohydroxamic acid (+AH), read-out: IC50 MMP13 (+AH)", "result": 7.20}, {"measurement": "pIC50", "setting": "MMP-3; read-out: IC50 MMP-3", "result": "< 4.52"}, {"measurement": "pIC50", "setting": "MMP-12 [2]; [5]", "result": "< 6.40"}, {"measurement": "pIC50", "setting": "MMP-12 [2]; in presence of acetohydroxamic acid (+AH), read-out: IC50 MMP12 (+AH)", "result": 7.92}]}
{"smiles": "Cc1cc(O)nc(SCc2ccc(Cl)cc2)n1", "note": "[Entry 4]", "values": [{"measurement": "IC50 Ratio (±)", "setting": "[3]", "result": "0.07^a"}]}
{"smiles": "Nc1ccc(-c2ccc(S(N)(=O)=O)cc2)cc1", "note": "[Entry 1]", "values": [{"measurement": "IC50 Ratio (±)", "setting": "[3]", "result": "0.47^a"}]}
{"smiles": "O=C(OCc1ccccc1)c1ccc2[nH]c(=O)n(Cc3ccccc3)c(=O)c2c1", "note": "[Example 4, 3-Benzyl-2,4-dioxo-1,2,3,4-tetrahydro-quinazoline-6-carboxylic acid benzyl ester]", "values": [{"measurement": "pIC50", "setting": "MMP-9; unit inferred, read-out: Activities measured by TPL assays, MMP-9", "result": "< 4.00"}, {"measurement": "pIC50", "setting": "MMP-1; unit inferred, read-out: Activities measured by TPL assays, MMP-1", "result": "< 4.52"}, {"measurement": "pIC50", "setting": "MMP-7; unit inferred, read-out: Activities measured by TPL assays, MMP-7", "result": "< 4.52"}, {"measurement": "pIC50", "setting": "MMP-14; unit inferred, read-out: Activities measured by TPL assays, MMP-14", "result": "< 4.00"}, {"measurement": "pIC50", "setting": "MMP-2; unit inferred, read-out: Activities measured by TPL assays, MMP-2", "result": "< 4.00"}, {"measurement": "pIC50", "setting": "MMP-13; TPL assay, unit inferred, read-out: Activities measured by TPL assays, MMP-13", "result": 7.53}, {"measurement": "pIC50", "setting": "MMP-3; unit inferred, read-out: Activities measured by TPL assays, MMP-3", "result": "< 4.52"}]}
{"smiles": "NS(=O)(=O)c1ccc(-c2ccc([N+](=O)O)cc2)cc1", "note": "[Entry 2]", "values": [{"measurement": "IC50 Ratio (±)", "setting": "[3]", "result": 0.04}]}
{"smiles": "COc1ccc(C(=O)NCc2cccnc2)cc1C(=O)NCc1cccnc1", "note": "[Entry 7]", "values": [{"measurement": "IC50 Ratio (±)", "setting": "[3]", "result": 0.41}]}
